Measurements from patent publication US9549560B2, “Pesticidal compositions and related methods” (DOW AGROSCIENCES LLC, priority 2013, dated 2017).

Tests used:
[1] = system: Sweetpotato Whitefly-Crawler (Bemisia tabaci); experiment: Insecticidal test for Sweetpotato Whitefly-Crawler (WF) (BEMITA) in foliar spray assay on cotton plants; format: in vivo; details: 216 h, 200 ppm foliar spray, graded after 9 days, Abbott corrected % control, read-out: % Control (or Mortality) rating, WF
Description: Cotton plants (Gossypium hirsutum) grown in 3-inch pots, with 1 small (4-5 cm) true leaves, were used as test substrate. The plants were infested with 200-400 whitefly eggs 4-5 days prior to chemical application. Four pots with individual plants were used for each treatment. Test compounds (2 mg) were dissolved in 1 mL of acetone solvent, forming stock solutions of 2000 ppm test compound. The stock solutions were diluted 10× with 0.025% Tween 20 in H2O (diluents) to obtain the solution at 200 ppm test compound. A hand-held aspirator-type sprayer was used for spraying a solution to both sides of cotton leaves until runoff. Reference plants (solvent check) were sprayed with the diluent only containing 10% by volume of acetone solvent. Treated plants were held in a holding room for 9 days at approximately 25° C. and ambient relative humidity (RH) prior to grading. Evaluation was conducted by counting the number of live 3-4 nymph stage per plant under a microscope. Percent control was measured by using Abbott's correction formula (W. S. Abbott, “A Method of Computing the Effectiveness of an Insecticide,” J. Econ. Entomol. 18 (1925), pp. 265-267) as follows. Corrected % Control=100*(X−Y)/X
X=No. of live nymphs on solvent check plants and
Y=No. of live nymphs on treated plants.
(§1) Biological Data for Green Peach Aphid (GPA) (MYZUPE) and Sweetpotato Whitefly-crawler (WF) (BEMITA)” (See Table Section).

[2] = system: Green Peach Aphid (Myzus persicae); experiment: Bioassay for Green Peach Aphid (GPA) (MYZUPE), foliar spray on cabbage seedlings; format: in vivo; details: 72 h, 200 ppm foliar spray, graded after three days, Abbott corrected % control, read-out: % Control (or Mortality) rating, GPA
Description: Cabbage seedlings grown in 3-inch pots, with 2-3 small (3-5 cm) true leaves, were used as test substrate. The seedlings were infested with 20-50 GPA (wingless adult and nymph stages) one day prior to chemical application. Four pots with individual seedlings were used for each treatment. Test compounds (2 mg) were dissolved in 2 mL of acetone/methanol (1:1) solvent, forming stock solutions of 1000 ppm test compound. The stock solutions were diluted 5× with 0.025% Tween 20 in H2O to obtain the solution at 200 ppm test compound. A hand-held aspirator-type sprayer was used for spraying a solution to both sides of […] leaves until runoff. Reference plants (solvent check) were sprayed with the diluent only containing 20% by volume of acetone/methanol (1:1) solvent. Treated plants were held in a holding room for three days at approximately 25° C. and ambient relative humidity (RH) prior to grading. Evaluation was conducted by counting the number of live aphids per plant under a microscope. Percent control was measured by using Abbott's correction formula (W. S. Abbott, “A Method of Computing the Effectiveness of an Insecticide,” J. Econ. Entomol. 18 (1925), pp. 265-267) as follows. Corrected % Control=100*(X−Y)/X
X=No. of live aphids on solvent check plants and
Y=No. of live aphids on treated plants
as §1

SMILES: CCN(C(=O)CC[S+]([O-])CC1CC1(F)F)c1cn(-c2ccc[n+]([O-])c2)nc1Cl (stereo not drawn) [Compound P49, 3-(3-Chloro-4-(3-(((2,2-difluorocyclopropyl)methyl)sulfinyl)-N-ethylpropanamido)-1H-pyrazol-1-yl)pyridine 1-oxide]
- mortality at 200 ppm [1]: 80 to 100%
- mortality at 200 ppm [2]: 80 to 100%

SMILES: CCN(C(=O)CCSCC(F)(F)F)c1cn(-c2ccc[n+]([O-])c2)nc1Cl [Compound P50, 3-(3-chloro-4-(N-ethyl-3-((2,2,2-trifluoroethyl)thio)propanamido)-1H-pyrazol-1-yl)pyridine 1-oxide]
- mortality at 200 ppm [1]: 80 to 100%
- mortality at 200 ppm [2]: 80 to 100%

SMILES: CCN(C(=O)CCSCCCC(F)(F)F)c1cn(-c2ccc[n+]([O-])c2)nc1Cl [Compound P53, 3-(3-Chloro-4-(N-ethyl-3-((4,4,4-trifluorobutyl)thio)propanamido)-1H-pyrazol-1-yl)pyridine 1-oxide]
- mortality at 200 ppm [1]: 80 to 100%
- mortality at 200 ppm [2]: 80 to 100%

SMILES: CCN(C(=O)CC[S+]([O-])CCCC(F)(F)F)c1cn(-c2ccc[n+]([O-])c2)nc1Cl (stereo not drawn) [Compound P54, 3-(3-Chloro-4-(N-ethyl-3-((4,4,4-trilluorobutyl)sulfinyl)propanamido)-1H-pyrazol-1-yl)pyridine 1-oxide]
- mortality at 200 ppm [1]: 80 to 100%
- mortality at 200 ppm [2]: 80 to 100%

SMILES: CN(C(=O)CCSCC1CC1(F)F)c1cn(-c2ccc[n+]([O-])c2)nc1Cl (stereo not drawn) [Compound P56, 3-(3-Chloro-4-(3-(((2,2-difluorocyclopropyl)methyl)thio)-N-methylpropanamido)-1H-pyrazol-1-yl)pyridine 1-oxide]
- mortality at 200 ppm [1]: 80 to 100%
- mortality at 200 ppm [2]: 80 to 100%

SMILES: CN(C(=O)CC[S+]([O-])CC1CC1(F)F)c1cn(-c2ccc[n+]([O-])c2)nc1Cl (stereo not drawn) [Compound P57, 3-(3-Chloro-4-(3-(((2,2-difluorocyclopropyl)methyl)sulfinyl)-N-methylpropanamido)-1H-pyrazol-1-yl)pyridine 1-oxide]
- mortality at 200 ppm [1]: 80 to 100%
- mortality at 200 ppm [2]: 80 to 100%

SMILES: CN(C(=O)CCSCCCC(F)(F)F)c1cn(-c2ccc[n+]([O-])c2)nc1Cl [Compound P62, 3-(3-Chloro-4-(N-methyl-3-((4,4,4-trifluorobutyl)thio)propanamido)-1H-pyrazol-1-yl)pyridine 1-oxide]
- mortality at 200 ppm [1]: 80 to 100%
- mortality at 200 ppm [2]: 80 to 100%

SMILES: CN(C(=O)CC[S+]([O-])CCCC(F)(F)F)c1cn(-c2ccc[n+]([O-])c2)nc1Cl (stereo not drawn) [Compound P63, 3-(3-Chloro-4-(N-methyl-3-((4,4,4-trifluorobutyl)sulfinyl)propanamido)-1H-pyrazol-1-yl)pyridine 1-oxide]
- mortality at 200 ppm [1]: 80 to 100%
- mortality at 200 ppm [2]: 80 to 100%

SMILES: C#CCN(C(=O)CCSCC1CC1(F)F)c1cn(-c2ccc[n+]([O-])c2)nc1Cl (stereo not drawn) [Compound P65, 3-(3-Chloro-4-(3-(((2,2-difluorocyclopropyl)methyl)thio)-N-(prop-2-yn-1-yl)propanamido)-1H-pyrazol-1-yl)pyridine 1-oxide]
- mortality at 200 ppm [1]: 80 to 100%
- mortality at 200 ppm [2]: 80 to 100%

SMILES: C#CCN(C(=O)CC[S+]([O-])CC1CC1(F)F)c1cn(-c2ccc[n+]([O-])c2)nc1Cl (stereo not drawn) [Compound P66, 3-(3-Chloro-4-(3-(((2,2-difluorocyclopropyl)methyl)sulfinyl)-N-(prop-2-yn-1-yl)propanamido)-1H-pyrazol-1-yl)pyridine 1-oxide]
- mortality at 200 ppm [1]: 80 to 100%
- mortality at 200 ppm [2]: 80 to 100%

SMILES: C#CCN(C(=O)CCSCCCC(F)(F)F)c1cn(-c2ccc[n+]([O-])c2)nc1Cl [Compound P71, 3-(3-Chloro-4-(N-(prop-2-yn-1-yl)-3-((4,4,4-trifluorobutyl)thio)propanamido)-1H-pyrazol-1-yl)pyridine 1-oxide]
- mortality at 200 ppm [1]: 80 to 100%
- mortality at 200 ppm [2]: 80 to 100%

SMILES: C#CCN(C(=O)CC[S+]([O-])CCCC(F)(F)F)c1cn(-c2ccc[n+]([O-])c2)nc1Cl (stereo not drawn) [Compound P72, 3-(3-Chloro-4-(N-(prop-2-yn-1-yl)-3-((4,4,4-trifluorobutyl)sulfinyl)propanamido)-1H-pyrazol-1-yl)pyridine 1-oxide]
- mortality at 200 ppm [1]: 80 to 100%
- mortality at 200 ppm [2]: 80 to 100%
